# Test results published in patent US20130302442A1, “METHODS OF USING (4S,4AS,5AR,12AS)-4-DIMETHYLAMINO-3,10,12,12A-TETRAHYDROXY-7-[(METHOXY(METHYL)AMINO)-METHYL]-1,11-DIOXO-1,4,4A,5,5A,6,11,12A-OCTAHYDRO-NAPHTHACENE-2-CARBOXYLIC ACID AMIDE” (priority 2012, published 2013).
# Where two headings read alike, the source gives them in different places.
# Key:
# [1] = tested on: Bifidobacterium infantis; assay: In vitro MIC testing against anaerobic bacteria; assay type: cell-based; conditions: ATCC15702; Bifidobacterium infantis 3966, ATCC 15702
# [2] = tested on: Lactobacillus acidophilus; assay: In vitro MIC testing against anaerobic bacteria; assay type: cell-based; conditions: Lactobacillus acidophilus 0681
# [3] = tested on: Peptostreptococcus anaerobius; assay: In vitro MIC testing against anaerobic bacteria; assay type: cell-based
# [4] = tested on: Peptostreptococcus micros; assay: In vitro MIC testing against anaerobic bacteria; assay type: cell-based; conditions: Parvimonas micra
# [5] = tested on: Streptococcus constellatus; assay: In vitro MIC testing against anaerobic bacteria; assay type: cell-based
# [6] = tested on: P. acnes; assay: In vitro MIC testing, antibacterial spectrum of activity; assay type: cell-based, Propionibacterium acnes; conditions: for MIC50: read-out: MIC50; for MIC90: read-out: MIC90
# [7] = tested on: S. aureus; assay: as above; assay type: cell-based, Staphylococcus aureus; conditions: for MIC50 / MIC90 / MIC: Staphylococcus aureus; for MIC50: read-out: MIC50; for MIC90: read-out: MIC90
# [8] = tested on: E. faecium; assay: as above; assay type: cell-based; conditions: for MIC / MIC50 / MIC90: Enterococcus faecium; for MIC50: read-out: MIC50; for MIC90: read-out: MIC90
# [9] = tested on: E. cloacae; assay: as above; assay type: cell-based; conditions: Enterobacter cloacae; E. cloacae (30 isolates)
# [10] = tested on: Salmonella Spp.; assay: as above; assay type: cell-based; conditions: Salmonella
# [11] = tested on: Chlamydia trachomatis; assay: In vitro susceptibility testing of Chlamydia trachomatis in HEp-2 cells (first study); assay type: cell-based; conditions: C. trachomatis strains
# [12] = tested on: Helicobacter pylori; assay: In vitro MIC against multiple isolates of H. pylori; assay type: cell-based; conditions: for MIC: read-out: MIC
# [13] = tested on: methicillin-sensitive S. aureus (MSSA); assay: In vitro MIC against isolates of MSSA; assay type: cell-based, Staphylococcus aureus
# [14] = tested on: hospital-associated methicillin-resistant S. aureus (MRSA-HA); assay: In vitro MIC against isolates of MRSA-HA; assay type: cell-based, Staphylococcus aureus; conditions: MRSA-HA (33 isolates)
# [15] = tested on: community-acquired methicillin-resistant S. aureus (MRSA-CA); assay: In vitro MIC against isolates of MRSA-CA; assay type: cell-based, Staphylococcus aureus
# [16] = tested on: Chlamydia trachomatis; assay: Susceptibility testing (MIC, MBC) of 10 isolates of C. trachomatis in HEp-2 cells; assay type: cell-based
# [17] = tested on: Chlamydia pneumoniae; assay: Susceptibility testing (MIC, MBC) of 10 isolates of C. pneumoniae in HEp-2 cells; assay type: cell-based
# [18] = tested on: bacterial protein synthesis (synthesis of reporter protein); assay: In vitro cell-free bacterial transcription and translation assay; assay type: biochemical; conditions: cell-free bacterial transcription and translation assay (Promega); read-out: IC50, inhibition of the synthesis of reporter protein
# [19] = tested on: Staphylococcus aureus; assay: Inhibition of macromolecular synthesis in Staphylococcus aureus (whole-cell assay); assay type: cell-based; conditions: S. aureus, at 8-fold the MIC
# [20] = Cutibacterium acnes, P. acnes [clinical isolates] (55 isolates)
# [21] = Cutibacterium acnes, P. acnes [tetS] (13 isolates)
# [22] = MRSA, S. aureus [MRSA] (31 isolates)
# [23] = MSSA, S. aureus [MSSA] (32 isolates)
# [24] = Staphylococcus aureus, MRSA-CA (33 isolates)
smiles,measurement,setting,value
"CON(C)Cc1ccc(O)c2c1C[C@H]1C[C@H]3[C@H](N(C)C)C(O)=C(C(N)=O)C(=O)[C@@]3(O)C(O)=C1C2=O [The Active, (4S,4aS,5aR,12aS)-4-dimethylamino-3,10,12,12a-tetrahydroxy-7-[(methoxy(methyl)amino)-methyl]-1,11-dioxo-1,4,4a,5,5a,6,11,12a-octahydro-naphthacene-2-carboxylic acid amide]",MIC,[1],0.5 µg/mL
same,MIC,[2],4 µg/mL
same,MIC,[3]; Peptostreptococcus anaerobius 3526,2 µg/mL
same,MIC,[3]; Peptostreptococcus anaerobius 3531,4 µg/mL
same,MIC,[4],0.25 µg/mL
same,MIC,"[4]; Peptostreptococcus micros 3545, read-out: MIC",1 µg/mL
same,MIC,"[5]; ATCC27823, Streptococcus constellatus 1202, ATCC 27823, read-out: MIC",32 µg/mL
same,MIC,"[5]; Streptococcus constellatus, S. constellatus, summary of Table 1, read-out: MIC, high MIC values",> 16 µg/mL
same,MIC,[6]; Cutibacterium acnes,> 8 µg/mL
same,MIC50,[6]; [20],0.5 µg/mL
same,MIC90,[6]; [20],4 µg/mL
same,MIC50,[6]; [21],0.5 µg/mL
same,MIC90,[6]; [21],2 µg/mL
same,MIC Range,[6]; P. acnes [clinical isolates] (55 isolates),0.5 to 16 µg/mL
same,MIC Range,[6]; P. acnes [tetS] (2 isolates),0.25 to 1 µg/mL
same,MIC Range,[6]; P. acnes [tetS] (13 isolates),0.25 to 4 µg/mL
same,MIC Range,[7]; S. aureus [MRSA] (31 isolates),0.25 to 4 µg/mL
same,MIC Range,[7]; S. aureus [MSSA] (32 isolates),0.25 to 16 µg/mL
same,MIC Range,[7]; S. aureus [tetR] (10 isolates),0.125 to 32 µg/mL
same,MIC Range,[7]; S. aureus [tetS] (20 isolates),≦0.06-0.25 μg/mL
same,MIC50,[7]; [22],0.25 µg/mL
same,MIC90,[7]; [22],0.5 µg/mL
same,MIC50,[7]; [23],0.5 µg/mL
same,MIC90,[7]; [23],0.5 µg/mL
same,MIC50,[7]; S. aureus [tetR] (10 isolates),4 µg/mL
same,MIC90,[7]; S. aureus [tetR] (10 isolates),16 µg/mL
same,MIC50,[7]; S. aureus [tetS] (20 isolates),0.125 µg/mL
same,MIC90,[7]; S. aureus [tetS] (20 isolates),0.25 µg/mL
same,MIC,"[7]; S. aureus strain PBS # 1309, tetK",0.5 µg/mL
same,MIC,"[7]; S. aureus strain PBS # 1310, tetM",8 µg/mL
same,MIC,"[7]; S. aureus strain PBS # 1739, tet38",4 µg/mL
same,MIC Range,[8]; E. faecium [VRE] (30 isolates),0.12 to 32 µg/mL
same,MIC Range,[8]; E. faecium [VSE] (32 isolates),0.12 to 32 µg/mL
same,MIC Range,[8]; E. faecium [tetR] (6 isolates),8 to 32 µg/mL
same,MIC,"[8]; E. faecium strain PBS # 965, tetM",8 µg/mL
same,MIC,"[8]; E. faecium strain PBS # 1323, tetK",8 µg/mL
same,MIC,"[8]; E. faecium strain PBS # 1324, tetO",16 µg/mL
same,MIC50,[8]; E. faecium [VRE] (30 isolates),2 µg/mL
same,MIC90,[8]; E. faecium [VRE] (30 isolates),32 µg/mL
same,MIC50,[8]; E. faecium [VSE] (32 isolates),0.5 µg/mL
same,MIC90,[8]; E. faecium [VSE] (32 isolates),32 µg/mL
same,MIC50,[9],32 µg/mL
same,MIC90,[9],> 64 µg/mL
same,MIC90,[10],> 64 µg/mL
same,MIC Range,[11],0.06 to 0.125 µg/mL
same,MIC90,"[11]; Chlamydia trachomatis, read-out: MIC at which 90% of the strains were inhibited (MIC90)",0.125 µg/mL
same,MBC,"[11]; Chlamydia trachomatis, read-out: minimum bactericidal concentration at which 90% of the strains were inhibited (MBC90)",0.125 µg/mL
same,MIC Range,[12]; H. pylori clinical isolate summary,1 to 8 µg/mL
same,concentration inhibiting 12 out of 13 strains,"[12]; H. pylori, 12 out of 13 strains",1 to 2 µg/mL
same,concentration inhibiting all test strains,"[12]; H. pylori, all 13 test strains",≤ 8 µg/mL
same,MIC,"[12]; Helicobacter pylori, ATCC43504, H. pylori reference strain, culture No. 3718, ATCC 43504",2 µg/mL
same,MIC,"[12]; Helicobacter pylori, ATCC700824, H. pylori reference strain, culture No. 3719, ATCC 700824",2 µg/mL
same,MIC,"[12]; Helicobacter pylori, ATCCBAA945, H. pylori reference strain, culture No. 3720, ATCC BAA-945",1 µg/mL
same,MIC,"[12]; Helicobacter pylori, H. pylori clinical isolate, culture No. 4368",2 µg/mL
same,MIC,"[12]; Helicobacter pylori, H. pylori clinical isolate, culture No. 4369",8 µg/mL
same,MIC,"[12]; Helicobacter pylori, H. pylori clinical isolate, culture No. 4370",2 µg/mL
same,MIC,"[12]; Helicobacter pylori, H. pylori clinical isolate, culture No. 4371",2 µg/mL
same,MIC,"[12]; Helicobacter pylori, H. pylori clinical isolate, culture No. 4372",1 µg/mL
same,MIC,"[12]; Helicobacter pylori, H. pylori clinical isolate, culture No. 4374",2 µg/mL
same,MIC,"[12]; Helicobacter pylori, H. pylori clinical isolate, culture No. 4375",2 µg/mL
same,MIC,"[12]; Helicobacter pylori, H. pylori clinical isolate, culture No. 4377",1 µg/mL
same,MIC,"[12]; Helicobacter pylori, H. pylori clinical isolate, culture No. 4503",2 µg/mL
same,MIC,"[12]; Helicobacter pylori, H. pylori clinical isolate, culture No. 4504",1 µg/mL
same,MIC90,"[12]; Helicobacter pylori, H. pylori, MIC for 90% of clinical test isolates, read-out: MIC90",2 µg/mL
same,MIC50,"[12]; Helicobacter pylori, read-out: MIC50",2 µg/mL
same,MIC90,[13]; MSSA (34 isolates),1.0 µg/mL
same,MIC Range,[13]; MSSA (34 isolates),0.25 to 16 µg/mL
same,MIC50,"[13]; Staphylococcus aureus, MSSA (34 isolates)",0.25 µg/mL
same,MIC90,"[13]; Staphylococcus aureus, MSSA (34 isolates), read-out: MIC90",1 µg/mL
same,MIC,"[13]; Staphylococcus aureus, single strain of doxycycline-resistant MSSA",16 µg/mL
same,MIC Range,[14],0.25 to 0.5 µg/mL
same,MIC50,[14]; Staphylococcus aureus,0.25 µg/mL
same,MIC90,[14]; Staphylococcus aureus,0.5 µg/mL
same,MIC Range,[15]; MRSA-CA (33 isolates),0.12 to 8 µg/mL
same,MIC50,[15]; [24],0.25 µg/mL
same,MIC90,[15]; [24],0.5 µg/mL
same,MIC,"[15]; Staphylococcus aureus, single strain of doxycycline-resistant MRSA-CA",8 µg/mL
same,MIC 90%,[16]; 72 h,0.125 µg/mL
same,MIC Range,[16]; 72 h,0.03 to 0.125 µg/mL
same,MIC50,"[16]; Chlamydia trachomatis, 72 h",0.06 µg/mL
same,MIC90,"[16]; Chlamydia trachomatis, 72 h",0.125 µg/mL
same,MBC,"[16]; Chlamydia trachomatis, after passage, read-out: MBC 90%",0.125 µg/mL
same,MBC 90%,[16]; after passage,0.125 µg/mL
same,MBC Range,[16]; after passage,0.03 to 0.125 µg/mL
same,MIC 90%,[17]; 72 h,0.5 µg/mL
same,MIC Range,[17]; 72 h,0.125 to 0.5 µg/mL
same,MIC50,"[17]; Chlamydia pneumoniae, 72 h",0.25 µg/mL
same,MIC90,"[17]; Chlamydia pneumoniae, 72 h",0.5 µg/mL
same,MBC,"[17]; Chlamydia pneumoniae, after passage, read-out: MBC 90%",0.25 µg/mL
same,MBC 90%,[17]; after passage,0.25 µg/mL
same,MBC Range,[17]; after passage,0.125 to 0.5 µg/mL
same,IC50,[18],8.3 ± 0.18 µM
same,"inhibition of the synthesis of cell wall, DNA, RNA and lipid components",[19],less than 20%
same,maximum inhibition of incorporation of [3H]-leucine into proteins,[19],80%
